# Measurements as given in the supplement of paper PMC10307832.
# Compound: c1ccc2c(CCNc3ccc(Nc4ccncc4)cc3)c[nH]c2c1 [Serdemetan] + COc1cc2c(Oc3ccc(NC(=O)C4(C(=O)Nc5ccc(F)cc5)CC4)cc3F)ccnc2cc1OCCCN1CCOCC1 [Foretinib] (partner 0.25 µM)
# Test: relative viability (nuclei count vs DMSO), 5 days (fraction); higher = more cells survive
# Conditions: first compound 4 µM
# Method in brief: (§1)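 For relative viability, nuclei counts in treated wells were divided by those in vehicle wells. Lung cancer cell lines had been pin-tool dosed in 1536-well plates the day after seeding and cultured for 5 days, then fixed and stained in one step (final 0.05% Triton X-100, 1% formaldehyde, 1 ug/ml Hoechst) and imaged at 4×. Doses were one drug alone or a fixed anchor-drug dose plus five library-drug doses (not always all listed) in √10 steps, and values are duplicate-plate medians.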
row,Cell Line,relative viability
1,NCI-H1355,0.66
2,NCI-H3122,1.01

# Compound: C1CC(C2=C(C1)C3=C(N2)C=CC(=C3)Cl)C(=O)N [Selisistat] + CC1(C)CCC(c2ccc(Cl)cc2)=C(CN2CCN(c3ccc(C(=O)NS(=O)(=O)c4ccc(N[C@H](CCN5CCOCC5)CSc5ccccc5)c(S(=O)(=O)C(F)(F)F)c4)cc3)CC2)C1 [Navitoclax] (partner 0.5 µM)
# Test: as above
# Conditions: first compound 0.4 µM
# Method in brief: as §1
row,Cell Line,relative viability
1,COR-L23,0.994
2,COR-L 105,0.635
3,LOU-NH91,0.695
4,ChaGo-K-1,0.959
5,NCI-H2170,0.601
6,NCI-H2405,0.785
7,HOP-62,1.07
8,LU99A,0.797
9,BEN,0.0717
10,HARA,1.17
11,HCC-78,0.961
12,NCI-H322M,1.26
13,LCLC-97TM1,0.535
14,NCI-H2009,1.18
15,A-427,0.98
16,NCI-H441,0.608
17,NCI-H1734,0.961

row,Cell Line,relative viability
1,NCI-H460,1.2
2,NCI-H2347,0.846
3,SK-LU-1,1.08
4,NCI-H1395,1.19
5,201T,1.21
6,NCI-H1915,0.782
7,HCC-827,1.03
8,LXF-289,0.95
9,NCI-H23,0.853
10,NCI-H647,1.11
11,CAL-12T,1.19
12,NCI-H1651,0.902
13,EPLC-272H,1.07
14,NCI-H2228,1.15
15,NCI-H1355,1.01
16,NCI-H3122,1.01

# Same assay, conditions: first compound 1.265 µM
row,Cell Line,relative viability
1,COR-L23,1.09
2,COR-L 105,0.763
3,LOU-NH91,0.637
4,ChaGo-K-1,1.1
5,NCI-H2170,0.623
6,HOP-62,0.905
7,LU99A,0.864
8,BEN,0.0697
9,HARA,1.08
10,HCC-78,0.836
11,NCI-H322M,1.18
12,LCLC-97TM1,0.476
13,NCI-H2009,1.15
14,A-427,0.986
15,NCI-H441,0.619
16,NCI-H1734,0.764

row,Cell Line,relative viability
1,NCI-H460,1.16
2,NCI-H2347,0.847
3,SK-LU-1,0.897
4,NCI-H1395,1.14
5,201T,1.17
6,NCI-H1915,0.776
7,HCC-827,0.992
8,LXF-289,0.966
9,NCI-H23,0.936
10,CAL-12T,1.04
11,NCI-H1651,0.974
12,EPLC-272H,1.16
13,NCI-H2228,0.894
14,NCI-H1355,0.887
15,NCI-H3122,1.02

# Same assay, conditions: first compound 4 µM
row,Cell Line,relative viability
1,COR-L23,1.07
2,COR-L 105,0.671
3,LOU-NH91,0.58
4,NCI-H2170,0.618
5,HOP-62,1.02
6,LU99A,0.864
7,BEN,0.0619
8,HARA,1.17
9,HCC-78,0.765
10,LCLC-97TM1,0.621
11,NCI-H2009,1.19
12,A-427,1.04
13,NCI-H1734,0.822
14,NCI-H2347,0.588
15,SK-LU-1,1.05
16,NCI-H1395,1.07
17,201T,1.16
18,NCI-H1915,0.83
19,HCC-827,1.01
20,LXF-289,0.895
21,CAL-12T,1.16
22,NCI-H1651,0.934
23,NCI-H2228,0.759
24,NCI-H3122,0.935

# Same assay, conditions: first compound 12.65 µM
row,Cell Line,relative viability
1,COR-L23,0.939
2,COR-L 105,0.815
3,LOU-NH91,0.664
4,ChaGo-K-1,0.881
5,NCI-H2170,0.708
6,NCI-H2405,0.804
7,HOP-62,0.934
8,LU99A,0.915
9,BEN,0.0731
10,HARA,1.13
11,HCC-78,0.705
12,NCI-H322M,1.26
13,LCLC-97TM1,0.473
14,NCI-H2009,1.14
15,A-427,0.878
16,NCI-H441,0.697
17,NCI-H1734,0.858

row,Cell Line,relative viability
1,NCI-H460,1.08
2,NCI-H2347,0.792
3,SK-LU-1,0.837
4,NCI-H1395,1.13
5,201T,1.25
6,NCI-H1915,0.797
7,HCC-827,1.01
8,LXF-289,0.901
9,NCI-H23,0.943
10,NCI-H647,0.993
11,CAL-12T,1.22
12,NCI-H1651,1
13,EPLC-272H,1.23
14,NCI-H2228,0.939
15,NCI-H1355,1.03
16,NCI-H3122,1.04

# Same assay, conditions: first compound 40 µM
row,Cell Line,relative viability
1,COR-L23,0.928
2,COR-L 105,0.823
3,LOU-NH91,0.707
4,ChaGo-K-1,0.901
5,NCI-H2170,0.713
6,NCI-H2405,0.793
7,HOP-62,1.16
8,LU99A,0.966
9,BEN,0.0771
10,HARA,1.22
11,HCC-78,0.714
12,NCI-H322M,1.47
13,LCLC-97TM1,0.483
14,NCI-H2009,1.1
15,A-427,1.11
16,NCI-H441,0.626
17,NCI-H1734,0.873

row,Cell Line,relative viability
1,NCI-H460,1.3
2,NCI-H2347,0.853
3,SK-LU-1,0.893
4,NCI-H1395,0.937
5,201T,1.25
6,NCI-H1915,0.804
7,HCC-827,1.01
8,LXF-289,0.92
9,NCI-H23,0.876
10,NCI-H647,1.13
11,CAL-12T,1.14
12,NCI-H1651,0.945
13,EPLC-272H,1.25
14,NCI-H2228,0.747
15,NCI-H1355,1.03
16,NCI-H3122,0.961

# Compound: c1ccc2c(CCNc3ccc(Nc4ccncc4)cc3)c[nH]c2c1 [Serdemetan] + Nc1nc2[nH]cc(CCc3ccc(C(=O)N[C@@H](CCC(=O)O)C(=O)O)cc3)c2c(=O)[nH]1 [Pemetrexed] (partner 0.2 µM)
# Test: as above
# Conditions: first compound 0.04 µM
# Method in brief: as §1
row,Cell Line,relative viability
1,COR-L23,0.206
2,COR-L 105,1.06
